Test results: the supplement of paper PMC11061612

Columns and labels:
A673 (Ewing's Sarcoma) = assay: Bliss excess, mean over the matrix (fraction); higher = more synergy
Method in brief: (§1)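 Bliss excess equals the observed combination effect minus the expected value EA + EB − EA·EB, where EA and EB are the effects of each agent alone. Combination Emax is the second-highest inhibition within the matrix. Inhibition was scaled from CellTiter-Glo 2.0 luminescence, with 0 set by vehicle wells and 1 by blank wells, after 72 hours of two-drug dosing of cells plated in 1536-well plates.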

[1] = tested on: HeLa (Cervical Carcinoma); assay: as above
Method in brief: as §1

[2] = tested on: Hs-746T (Gastric Carcinoma); assay: as above
Method in brief: as §1

[3] = tested on: KMRC-20 (Kidney Carcinoma); assay: as above
Method in brief: as §1

[4] = tested on: LCLC-97TM1 (Non-Small Cell Lung Carcinoma); assay: as above
Method in brief: as §1

[5] = tested on: MHH-CALL-2 (B-Lymphoblastic Leukemia); assay: as above
Method in brief: as §1

MPP-89 (Mesothelioma) = assay: as above
Method in brief: as §1

[6] = tested on: OV-56 (Ovarian Carcinoma); assay: as above
Method in brief: as §1

[7] = tested on: SNU-449 (Hepatocellular Carcinoma); assay: as above
Method in brief: as §1

[8] = tested on: MHH-CALL-2 (B-Lymphoblastic Leukemia); assay: combination Emax (second highest fraction inhibited in the dose matrix, 72 h); higher = more inhibition; extreme values may be limits of the assay
Method in brief: as §1

[9] = tested on: NCI-H720 (Other Solid Carcinomas); assay: Bliss excess, mean over the matrix (fraction); higher = more synergy
Method in brief: as §1

[10] = tested on: NCI-H720 (Other Solid Carcinomas); assay: combination Emax (second highest fraction inhibited in the dose matrix, 72 h); higher = more inhibition; extreme values may be limits of the assay
Method in brief: as §1

| Structure (SMILES) | Bliss excess (A673 (Ewing's Sarcoma)) | Bliss excess [1] | Bliss excess [2] | Bliss excess [3] | Bliss excess [4] | Bliss excess [5] | Bliss excess (MPP-89 (Mesothelioma)) | Bliss excess [6] | Bliss excess [7] | combination Emax [8] | Bliss excess [9] | combination Emax [10] |
| --- | --- | --- | --- | --- | --- | --- | --- | --- | --- | --- | --- | --- |
| CN(CCO)CC[C@H](CSc1ccccc1)Nc1ccc(S(=O)(=O)NC(=O)c2ccc(N3CCC([C@@H](O)c4ccccc4-c4ccc(Cl)cc4)CC3)cc2)cc1S(=O)(=O)C(F)(F)F [AZD4320] + CCN(CCO)CCCOc1ccc2c(Nc3cc(CC(=O)Nc4cccc(F)c4)[nH]n3)ncnc2c1 [AZD2811] (first compound max 1 µM, 7x7, partner max 1 µM) | 0.0819 | -0.0242 | -0.0095 | 0.0024 | 0.0642 | 0.138 | 0.0246 | -0.0293 | -0.0649 | 0.538 | – | – |
| CN(CCO)CC[C@H](CSc1ccccc1)Nc1ccc(S(=O)(=O)NC(=O)c2ccc(N3CCC([C@@H](O)c4ccccc4-c4ccc(Cl)cc4)CC3)cc2)cc1S(=O)(=O)C(F)(F)F [AZD4320] + C[C@@H]1COCCN1C2=NC(=NC(=C2)C3(CC3)[S@](=N)(=O)C)C4=C5C=CNC5=NC=C4 [AZD6738] (first compound max 1 µM, 7x7, partner max 10 µM) | 0.028 | -0.0319 | -0.0021 | -0.0289 | -0.0433 | 0.0042 | -0.0163 | -0.005 | -0.0721 | 0.921 | – | – |
| CN(CCO)CC[C@H](CSc1ccccc1)Nc1ccc(S(=O)(=O)NC(=O)c2ccc(N3CCC([C@@H](O)c4ccccc4-c4ccc(Cl)cc4)CC3)cc2)cc1S(=O)(=O)C(F)(F)F [AZD4320] + C[C@@H](Nc1cc(F)cc(F)c1)c1cc(C(=O)N(C)C)cc2c(=O)cc(N3CCOCC3)oc12 [AZD8186] (first compound max 1 µM, 7x7, partner max 3 µM) | 0.0149 | 0.0156 | -0.0354 | 0.0459 | -0.014 | 0.042 | 0.0212 | -0.0031 | 0.0093 | 0.917 | – | – |
| CN(CCO)CC[C@H](CSc1ccccc1)Nc1ccc(S(=O)(=O)NC(=O)c2ccc(N3CCC([C@@H](O)c4ccccc4-c4ccc(Cl)cc4)CC3)cc2)cc1S(=O)(=O)C(F)(F)F [AZD4320] + Cc1cc2ncnn2cc1Nc1ncc2c(n1)n(C1CCOCC1)c(=O)n2C [AZD7648] (first compound max 1 µM, 7x7, partner max 10 µM) | 0.0069 | -0.0345 | -0.0371 | -0.0393 | -0.0214 | 0.0839 | -0.0105 | -0.0109 | -0.0811 | 0.516 | – | – |
| Cc1cc2ncnn2cc1Nc1ncc2c(n1)n(C1CCOCC1)c(=O)n2C [AZD7648] + C=CCn1c(=O)c2cnc(Nc3ccc(N4CCN(C)CC4)cc3)nc2n1-c1cccc(C(C)(C)O)n1 [AZD1775] (first compound max 10 µM, partner max 1 µM) | -0.0306 | -0.0542 | -0.0827 | -0.0164 | 0.0234 | – | 0.0215 | 0.0602 | 0.0041 | – | -0.0899 | 0.601 |
| Cc1cc2ncnn2cc1Nc1ncc2c(n1)n(C1CCOCC1)c(=O)n2C [AZD7648] + CCN(CCO)CCCOc1ccc2c(Nc3cc(CC(=O)Nc4cccc(F)c4)[nH]n3)ncnc2c1 [AZD2811] (first compound max 10 µM, 7x7, partner max 1 µM) | -0.0672 | 0.0511 | -0.0291 | 0.026 | 0.0467 | – | 0.0023 | 0.0307 | 0.0117 | – | 0.0621 | 0.756 |
| Cc1cc2ncnn2cc1Nc1ncc2c(n1)n(C1CCOCC1)c(=O)n2C [AZD7648] + CN(C)CCCOc1ccc(-c2ccc3ncc4c(c3c2)n(C2CCOCC2)c(=O)n4C)cn1 [AZD0156] (first compound max 10 µM, 7x7, partner max 1 µM) | -0.0142 | 0.0376 | -0.024 | -0.0232 | -0.0042 | – | 0.0139 | 0.0081 | -0.0457 | – | -0.0328 | 0.296 |
| Cc1cc2ncnn2cc1Nc1ncc2c(n1)n(C1CCOCC1)c(=O)n2C [AZD7648] + C[C@@H]1COCCN1C2=NC(=NC(=C2)C3(CC3)[S@](=N)(=O)C)C4=C5C=CNC5=NC=C4 [AZD6738] (first compound max 10 µM, 7x7, partner max 10 µM) | -0.0295 | 0.0258 | -0.0119 | -0.0207 | 0.0376 | – | -0.0034 | 0.0044 | 0.0318 | – | -0.0692 | 0.722 |
| Cc1cc2ncnn2cc1Nc1ncc2c(n1)n(C1CCOCC1)c(=O)n2C [AZD7648] + O=C(c1cc(Cc2n[nH]c(=O)c3ccccc23)ccc1F)N1CCN(C(=O)C2CC2)CC1 [Olaparib] (first compound max 10 µM, 7x7, partner max 10 µM) | -0.015 | -0.0016 | -0.0732 | -0.0594 | -0.0218 | – | -0.0163 | -0.0157 | -0.0525 | – | -0.0244 | 0.316 |
| Cc1nc(Nc2ncc(C(=O)Nc3c(C)cccc3Cl)s2)cc(N2CCN(CCO)CC2)n1 [Dasatinib] + CC(=O)Nc1cccc(-n2c(=O)n(C3CC3)c(=O)c3c(Nc4ccc(I)cc4F)n(C)c(=O)c(C)c32)c1 [Trametinib] (first compound max 2 µM, 7x7, partner max 1 µM) | -0.075 | -0.0672 | -0.0943 | -0.0518 | 0.0455 | -0.0223 | -0.0661 | 0.0114 | -0.0631 | 0.128 | – | – |
| COc1cc2ncnc(Nc3ccc(F)c(Cl)c3)c2cc1OCCCN1CCOCC1 [Gefitinib] + CC(C)n1c(=O)n(C)c2cnc3cc(F)c(-c4ccc(OCCCN5CCCCC5)nc4)cc3c21 [AZD1390] (first compound max 10 µM, 7x7, partner max 0.3 µM) | -0.047 | -0.0578 | -0.0759 | -0.056 | -0.0389 | -0.0419 | -0.05 | -0.0543 | -0.0529 | 0.0382 | – | – |
| COc1cc2c(cc1OCCCCCOc1cc3c(cc1OC)C(=O)N1C=C(C)C[C@H]1C=N3)N=C[C@@H]1CC(C)=CN1C2=O [SG3199] + O=C(c1cc(Cc2n[nH]c(=O)c3ccccc23)ccc1F)N1CCN(C(=O)C2CC2)CC1 [Olaparib] (first compound max 0.001 µM, 7x7, partner max 10 µM) | -0.0556 | -0.0301 | -0.0292 | -0.0192 | -0.0079 | – | -0.0391 | -0.0297 | -0.0647 | – | 0.0077 | 0.144 |
| C[C@@H](c1ccc2nccn2c1)n1nnc2ncc(-c3cnn(C)c3)nc21 [Savolitinib] + CC1(C)CCC(CN2CCN(c3ccc(C(=O)NS(=O)(=O)c4ccc(NCC5CCOCC5)c([N+](=O)[O-])c4)c(Oc4cnc5[nH]ccc5c4)c3)CC2)=C(c2ccc(Cl)cc2)C1 [Venetoclax] (first compound max 1 µM, 7x7, partner max 1 µM) | -0.0673 | -0.0374 | -0.0105 | -0.0524 | -0.0427 | -0.0471 | -0.0566 | -0.0419 | -0.0358 | 0.0992 | – | – |
| C[C@@H](c1ccc2nccn2c1)n1nnc2ncc(-c3cnn(C)c3)nc21 [Savolitinib] + Cc1c2c(nn1C)CSCc1cc(n(C)n1)CSc1cc(c3ccccc3c1)OCCCc1c(C(=O)O)n(C)c3c-2c(Cl)ccc13 [AZD5991] (first compound max 1 µM, 7x7, partner max 1 µM) | 0.0471 | -0.0696 | -0.0489 | -0.0733 | -0.0311 | -0.0343 | -0.0423 | -0.0547 | -0.0432 | 0.976 | – | – |
